{
  "source": "paper PMC6662706",
  "about": "“Short amylin receptor antagonist peptides improve memory deficits in Alzheimer’s disease mouse model” (Scientific Reports, 2019)",
  "experiment": "Ex vivo NIR fluorescence brain imaging after ip injection (brain penetration)",
  "assay_type": "in vivo, mouse",
  "settings": "wild-type mice, 0, 0.6, 2, 10, 20 mg/kg single ip dose, 2 h, n = 3 per dose",
  "text": "Blood brain barrier (BBB) penetration can limit the potential of long sequence peptides as therapeutic agents in central nervous system (CNS). Previously, we have reported that a cyclized form of AC253 peptide and to a lesser degree its linear form can both penetrate the BBB at therapeutically relevant levels, and are localized to the hippocampus and cortex, regions relevant to memory and learning processes. Therefore, we examined the ability of Cy5.5 labeled peptide fragments (R5, and R14) to penetrate BBB in wild-type mice using NIR fluorescence ex vivo brain imaging. Brain fluorescence resulting from either R5 or R14 was assessed against full length AC253 2 h after a single intraperitoneal (ip) injection of peptides. […] Fluorescence signals were distributed throughout the cortex, but particularly strong within the hippocampal regions, where a very high density of amylin receptor expression has been reported. […]\nIn vivo brain penetration and pharmacokinetics of the peptides were determined in 6-month-old male or female wild-type (C57BL/6 background) and heterozygous CTR mice (het-CTR). […]\nFor ex vivo imaging experiments and peptide brain uptake, we used age matched 6-month-old wild-type littermate (C57BL/6 background) mice. […] Region of interest was drawn around the brain region and analyzed using the Kodak ID 3.6 software and the mean fluorescence intensity was recorded. […]",
  "note": "No end group written: not given here.",
  "data": [
    {"substance": "SQELHRLQTYPR-NH2 [R5]", "values": [
      {"measurement": "accumulation in the brain at increasing dose", "result": "dose-dependent"}
    ]}
  ]
}
